In ChEMBL document CHEMBL1149964, “The structure of MK-571 (form I) at 170 K and conformational analysis by molecular modeling” (Bioorg Med Chem Lett, 1992):

Key:
[1] = target: T1, Cysteinyl leukotriene receptor 1 (Homo sapiens) (UniProt Q9Y271); experiment: In vivo antagonistic activity against leukotriene D4 receptor; A - Active; assay type: functional, organism-based; settings: filed as antagonist
T1 sequence (whole entry): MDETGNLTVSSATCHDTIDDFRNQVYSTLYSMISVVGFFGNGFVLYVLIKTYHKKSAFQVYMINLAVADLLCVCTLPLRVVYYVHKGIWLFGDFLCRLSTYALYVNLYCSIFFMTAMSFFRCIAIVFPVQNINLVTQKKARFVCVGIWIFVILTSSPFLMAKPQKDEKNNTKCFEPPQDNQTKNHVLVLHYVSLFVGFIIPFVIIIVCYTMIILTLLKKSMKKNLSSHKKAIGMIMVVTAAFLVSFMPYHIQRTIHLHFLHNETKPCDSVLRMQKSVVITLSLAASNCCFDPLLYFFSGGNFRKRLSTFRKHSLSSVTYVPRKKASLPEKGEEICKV

[2] = target: T1, Cysteinyl leukotriene receptor 1 (Homo sapiens); experiment: In vitro antagonistic activity against leukotriene D4 receptor; A - Active; assay type: functional; settings: filed as antagonist

Activity [1]	Activity [2]	Structure (SMILES)
Antagonist	Antagonist	CN(C)C(=O)CCSC(SCCC(=O)O)c1cccc(/C=C/c2ccc3ccc(Cl)cc3n2)c1 (centres undefined)
Antagonist	Antagonist	CN(C)C(=O)CCS[C@H](SCCC(=O)O)c1cccc(/C=C/c2ccc3ccc(Cl)cc3n2)c1
